# US9656971B2, “COMT inhibitors” (Hoffmann-La Roche Inc., priority 2012, dated 2017)
# Counter-ions that a name gives are not always drawn. Like-named read-outs stand apart in the source and are kept apart here.
# Target: T1, Rec. human COMT (Homo sapiens, UniProt P21964)
# T1 sequence (P21964 1-271): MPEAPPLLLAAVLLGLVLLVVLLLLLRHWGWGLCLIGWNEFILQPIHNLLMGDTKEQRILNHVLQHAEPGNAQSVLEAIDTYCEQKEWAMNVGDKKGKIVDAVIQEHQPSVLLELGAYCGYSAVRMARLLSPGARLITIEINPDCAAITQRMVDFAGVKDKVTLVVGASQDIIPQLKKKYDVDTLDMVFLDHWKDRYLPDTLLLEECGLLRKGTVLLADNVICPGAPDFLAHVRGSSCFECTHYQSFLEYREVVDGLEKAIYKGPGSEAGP
# Assay: COMT-Fluorescence Assay
# Assay type: biochemical
# Conditions: rec. human COMT 25 nM, 4-Nitrocatechol-Alexa488 200 nM, SAM 500 nM
# Protocol: This intramolecular interaction is disturbed if the 4-Nitrocatechol is methylated. […] This increase of fluorescence intensity can be followed in a kinetic measurement. The slope in the linear range of the kinetic is calculated. An inhibitor compound decreases the slope.
# Signal [rfu/min]=(rfu(end-point)−rfu(startpoint))/incubation_time_#2
# [1] = COMT-fluorescence assay, read-out: IC50
Structure (SMILES),IC50 [1] [µM],"IC50 (IC50, COMT-fluorescence assay) [µM]"
"O=c1[nH]cnc2c(O)cc(C3CCc4ccccc4C3)cc12 (racemic) [Example 8, (rac.) 8-Hydroxy-6-(1,2,3,4-tetrahydronaphthalen-2-yl)quinazolin-4(3H)-one]",0.1,
"O=c1[nH]cnc2c(O)ccc(Br)c12 [Example 1, 5-Bromo-8-hydroxyquinazolin-4(3H)-one]",0.5,
"COC(=O)c1cc(O)c2nc[nH]c(=O)c2c1 [Example 2, Methyl 8-hydroxy-4-oxo-3,4-dihydroquinazoline-6-carboxylate]",0.03,
"O=C(c1cc(O)c2nc[nH]c(=O)c2c1)N1CCOCC1 [Example 3, 8-Hydroxy-6-(morpholine-4-carbonyl)quinazolin-4(3H)-one]",4.21,
"O=C(NCC(F)(F)C(F)(F)F)c1cc(O)c2nc[nH]c(=O)c2c1 [Example 4, 8-Hydroxy-4-oxo-N-(2,2,3,3,3-pentafluoropropyl)-3,4-dihydroquinazoline-6-carboxamide]",0.17,
"O=C(NCC(F)(F)F)c1cc(O)c2nc[nH]c(=O)c2c1 [Example 5, 8-Hydroxy-4-oxo-N-(2,2,2-trifluoroethyl)-3,4-dihydroquinazoline-6-carboxamide]",0.66,
"CCOC(=O)c1cc(O)c2nc[nH]c(=O)c2c1 [Example 6, Ethyl 8-hydroxy-4-oxo-3,4-dihydroquinazoline-6-carboxylate]",0.02,
"O=c1[nH]cnc2c(O)cc(Cc3ccccc3)cc12 [Example 9, 6-Benzyl-8-hydroxyquinazolin-4(3H)-one]",1.33,
"CCc1cc(O)c2nc[nH]c(=O)c2c1 [Example 10, 6-Ethyl-8-hydroxyquinazolin-4(3H)-one 2,2,2-trifluoroacetate]",,1.09
"O=c1[nH]cnc2c(O)cc(Cc3ccccc3F)cc12 [Example 11, 6-(2-Fluorobenzyl)-8-hydroxyquinazolin-4(3H)-one]",1.25,
"CC(C)c1cc(O)c2nc[nH]c(=O)c2c1 [Example 13, 8-Hydroxy-6-isopropylquinazolin-4(3H)-one]",1,
"COc1ccccc1Cc1cc(O)c2nc[nH]c(=O)c2c1 [Example 14, 8-Hydroxy-6-(2-methoxybenzyl)quinazolin-4(3H)-one]",4.9,
"COc1cccc(Cc2cc(O)c3nc[nH]c(=O)c3c2)c1 [Example 15, 8-Hydroxy-6-(3-methoxybenzyl)quinazolin-4(3H)-one]",1.2,
"O=c1[nH]cnc2c(O)cc(CCc3ccccc3)cc12 [Example 16, 8-Hydroxy-6-phenethylquinazolin-4(3H)-one]",0.56,
"CC(C)Cc1cc(O)c2nc[nH]c(=O)c2c1 [Example 17, 8-Hydroxy-6-isobutylquinazolin-4(3H)-one]",1.1,
"O=c1[nH]cnc2c(O)cc(C3CCCC3)cc12 [Example 18, 6-Cyclopentyl-8-hydroxyquinazolin-4(3H)-one]",0.9,
"O=c1[nH]cnc2c(O)cc(/C=C/c3ccccc3)cc12 [Example 20, (E)-8-Hydroxy-6-styrylquinazolin-4(3H)-one]",0.09,

Structure (SMILES),IC50 [1] [µM],"IC50 (IC50, COMT-fluorescence assay) [µM]"
"Cc1ccc(/C=C/c2cc(O)c3nc[nH]c(=O)c3c2)cc1 [Example 21, (E)-8-Hydroxy-6-(4-methylstyryl)quinazolin-4(3H)-one]",0.1,
O=c1[nH]cnc2c(O)cc(CCCc3ccccc3)cc12 [Example 22],0.2,
"O=c1[nH]cnc2c(O)cc(C#Cc3ccccc3)cc12 [Example 23, 8-Hydroxy-6-(phenylethynyl)quinazolin-4(3H)-one]",0.01,
"CN(C)c1ccc(/N=N/c2ccccc2)c(-c2cc(O)c3nc[nH]c(=O)c3c2)c1 [Example 29, (E)-6-(5-(Dimethylamino)-2-(phenyldiazenyl)phenyl)-8-hydroxyquinazolin-4(3H)-one]",2.8,
"O=c1[nH]cnc2c(O)cc(-c3c(F)c(F)c(F)c(F)c3F)cc12 [Example 33, 8-Hydroxy-6-(perfluorophenyl)quinazolin-4(3H)-one]",,0.02
"O=c1[nH]cnc2c(O)c(Br)c(-c3ccc(F)cc3)c(Br)c12 [Example 34, 5,7-Dibromo-6-(4-fluorophenyl)-8-hydroxyquinazolin-4(3H)-one]",0.17,
"O=c1[nH]cnc2c(O)c(F)c(-c3ccccc3)c(F)c12 [Example 38, 5,7-Difluoro-8-hydroxy-6-phenylquinazolin-4(3H)-one]",0.03,
"O=c1[nH]cnc2c(O)cc(-c3cccc(CN4CCOCC4)c3)cc12 [Example 39, 8-Hydroxy-6-(3-(morpholinomethyl)phenyl)quinazolin-4(3H)-one 1:1 salt with trifluoroacetate]",0.02,
"O=c1[nH]cnc2c(O)cc(Br)c(C(F)(F)F)c12 [Example 41, 6-Bromo-8-hydroxy-5-(trifluoromethyl)quinazolin-4(3H)-one]",0.16,
"O=c1[nH]cnc2c(O)ccc(C(F)(F)F)c12 [Example 42, 8-Hydroxy-5-(trifluoromethyl)quinazolin-4(3H)-one]",1.03,
"O=c1[nH]cnc2c(O)cc(-c3ccc(F)cc3)c(C(F)(F)F)c12 [Example 43, 6-(4-Fluorophenyl)-8-hydroxy-5-(trifluoromethyl)quinazolin-4(3H)-one]",0.04,
"O=c1[nH]cnc2c(O)cc(Br)c([N+](=O)[O-])c12 [Example 44, 6-Bromo-8-hydroxy-5-nitro-3H-quinazolin-4-one]",0.11,
"COCCn1nccc1-c1cc(O)c2nc[nH]c(=O)c2c1 [Example 45, 8-Hydroxy-6-(1-(2-methoxyethyl)-1H-pyrazol-5-yl)quinazolin-4(3H)-one]",0.03,
"COCc1nc(C)sc1-c1cc(O)c2nc[nH]c(=O)c2c1 [Example 46, 8-Hydroxy-6-(4-(methoxymethyl)-2-methylthiazol-5-yl)quinazolin-4(3H)-one]",0.01,
"COCCn1cc(-c2cc(O)c3nc[nH]c(=O)c3c2)cn1 [Example 47, 8-Hydroxy-6-(1-(2-methoxyethyl)-1H-pyrazol-4-yl)quinazolin-4(3H)-one]",0.06,
"O=c1[nH]cnc2c(O)cc(-c3ccc(F)cc3)c(-c3ccccc3)c12 [Example 49, 6-(4-Fluorophenyl)-8-hydroxy-5-phenylquinazolin-4(3H)-one]",0.02,

# Second part, the compound after the results:
IC50 [1] [µM],"IC50 (IC50, COMT-fluorescence assay) [µM]",Structure (SMILES)
2,,"COC(=O)C(C)c1ccc(-c2ccccc2)c(-c2cc(O)c3nc[nH]c(=O)c3c2)c1 (racemic) [Example 32, (rac.) Methyl 2-(2-(8-hydroxy-4-oxo-3,4-dihydroquinazolin-6-yl)biphenyl-4-yl)propanoate]"
0.01,,"O=c1[nH]cnc2c(O)cc(C3=Cc4ccccc4CC3)cc12 [Example 7, 6-(3,4-Dihydro-naphthalen-2-yl)-8-hydroxy-3H-quinazolin-4-one]"
1.47,,"Cc1cccc(Cc2cc(O)c3nc[nH]c(=O)c3c2)c1 [Example 12, 8-Hydroxy-6-(3-methylbenzyl)quinazolin-4(3H)-one]"
0.08,,"Cc1ccc(C)c2c1C=C(c1cc(O)c3nc[nH]c(=O)c3c1)CC2 [Example 19, 6-(5,8-dimethyl-3,4-dihydro-naphthalen-2-yl)-8-hydroxy-3H-quinazolin-4-one]"
,0.01,"CC(C)Oc1cccc(-c2cc(O)c3nc[nH]c(=O)c3c2)c1 [Example 24, 8-Hydroxy-6-(3-isopropoxyphenyl)quinazolin-4(3H)-one]"
,0.02,"O=c1[nH]cnc2c(O)cc(-c3ccc4c(c3)OCC4)cc12 [Example 25, 6-(2,3-Dihydrobenzofuran-6-yl)-8-hydroxyquinazolin-4(3H)-one]"
0.19,,"COc1ccc(C(F)(F)F)cc1-c1cc(O)c2nc[nH]c(=O)c2c1 [Example 26, 8-Hydroxy-6-(2-methoxy-5-(trifluoromethyl)phenyl)quinazolin-4(3H)-one]"
0.04,,"N#Cc1ccc(Cl)c(-c2cc(O)c3nc[nH]c(=O)c3c2)c1 [Example 27, 4-Chloro-3-(8-hydroxy-4-oxo-3,4-dihydroquinazolin-6-yl)benzonitrile]"
,0.04,"O=c1[nH]cnc2c(O)cc(-c3cc(F)c(F)c(F)c3)cc12 [Example 28, 8-Hydroxy-6-(3,4,5-trifluorophenyl)quinazolin-4(3H)-one]"
1.4,,"Cc1ccc(-c2ccc(C(F)(F)F)cc2)c(-c2cc(O)c3nc[nH]c(=O)c3c2)c1 [Example 30, 8-Hydroxy-6-(4-methyl-4′-(trifluoromethyl)biphenyl-2-yl)quinazolin-4(3H)-one]"
0.02,,"O=c1[nH]cnc2c(O)cc(-c3ccc(F)c(F)c3F)cc12 [Example 31, 8-Hydroxy-6-(2,3,4-trifluoro-phenyl)-3H-quinazolin-4-one]"
1.3,,"COc1ccc(C(C)(C)C)cc1-c1cc(O)c2nc[nH]c(=O)c2c1 [Example 35, 6-(5-tert-Butyl-2-methoxyphenyl)-8-hydroxyquinazolin-4(3H)-one]"
0.08,,"COc1ccc(C)cc1-c1cc(O)c2nc[nH]c(=O)c2c1 [Example 36, 8-Hydroxy-6-(2-methoxy-5-methylphenyl)quinazolin-4(3H)-one]"
,0.03,"O=c1[nH]cnc2c(O)cc(-c3cc(Cl)ccc3Cl)cc12 [Example 37, 6-(2,5-Dichlorophenyl)-8-hydroxyquinazolin-4(3H)-one]"
,0.01,"CN1CCc2cc(-c3cc(O)c4nc[nH]c(=O)c4c3)ccc21 [Example 40, 8-Hydroxy-6-(1-methylindolin-5-yl)quinazolin-4(3H)-one 1:1 salt with trifluoroacetate]"
0.05,,"CS(=O)(=O)c1ccc(Cl)c(-c2cc(O)c3nc[nH]c(=O)c3c2)c1 [Example 48, 6-(2-Chloro-5-methanesulfonyl-phenyl)-8-hydroxy-3H-quinazolin-4-one]"
